System: C. acnes
Test: Antibacterial activity: inhibition diameter of growth of C. acnes
Format: cell-based, Cutibacterium acnes
Settings: for Inhibition diameter (cm): C. acnes
Excerpt: In addition, the antibacterial activity (C. acnes) of these three products was compared according to the method described later in the present application. The inhibition diameter is proportional to the antibacterial efficacy of the product tested.
The results concerning the antibacterial effect of the active ingredient according to the invention compared to those of punicalagin, the main compound of the polyphenols present in the fruit of the pomegranate, are presented in Table 6.

What does the source list for `O=C1O[C@H]2[C@@H]3OC(=O)c4cc(O)c(O)c(O)c4-c4c(O)c(O)c5oc(=O)c6c(c(O)c(O)c7oc(=O)c4c5c76)-c4c(cc(O)c(O)c4O)C(=O)OC[C@H]3OC(O)[C@@H]2OC(=O)c2cc(O)c(O)c(O)c2-c2c1cc(O)c(O)c2O` (mixture of isomers) [Punicalagin]?
antibacterial activity on growth of C. acnes (in words): has an antibacterial effect on the growth of C. acnes; Inhibition diameter (cm) (Deposit 15 μl): 1.1 ± 0.1 cm; Inhibition diameter (cm) (Deposit 30 μl): 1.4 ± 0.1 cm
